In paper PMC6100056, “Antitumor Effects and Delivery Profiles of Menahydroquinone-4 Prodrugs with Ionic or Nonionic Promoiety to Hepatocellular Carcinoma Cells” (Molecules : A Journal of Synthetic Chemistry and Natural …, 2018):
Where a name gives a salt, the structure may show the parent alone.

How the values were obtained:
[1] = system: cyclin D1 and CDK4 in PLC/PRF/5 cells; assay: Western blotting of cell cycle regulatory proteins; format: cell-based; settings: 24 h after treatment
Procedure: We previously reported that MKH-DMG regulates cell cycle-related proteins as a mechanism of MKH-DMG-induced growth inhibition in PLC/PRF/5, Hep3B and SK-Hep-1 cells. Thus, to clarify the mechanisms of the growth inhibition induced by the MKH-ester prodrugs, we analyzed cell cycle-related proteins using Western blotting (Figure 7).
HCC cells were plated at 1.5 × 10^5 cells/well in 6-well plates and allowed to attach for 48 h. Cells were treated with MK-4, MKH-ACT, MKH-DMG or MKH-SUC for 24 h. Western blotting was performed as described previously.

PLC/PRF/5 cells = assay: Uptake of MKH-ester derivatives in HCC cells (Michaelis-Menten kinetics); format: in vitro ADME; settings: for Vmax (uptake of MKH-ester): PLC/PRF/5 cells, Michaelis-Menten fit, 95% confidence interval in square brackets
Procedure: (§1) To assess the uptake of the intrinsic MKH-ester derivatives as the first step of MKH delivery into HCC cells, the velocities of uptake of MKH-ester derivatives were plotted and fitted with the Michaelis--Menten model (as shown in Figure 3), and the calculated kinetic parameters were determined (Table 1). All three derivatives increased in both PLC/PRF/5 and SK-Hep-1 cells in a dose-dependent manner. The uptake of MKH-SUC was clearly higher than that of MKH-DMG and MKH-ACT at all concentrations examined. The ratio of the […] (Vmax/Km) for MKH-SUC was about 5- to 10-fold higher than those for MKH-ACT and MKH-DMG in both cell lines.
(§2) HCC cells were plated at 1.5 × 10^5 cells/well in 6-well plates and allowed to attach for 48 h. Cells were cultured in medium containing MK-4, MKH-ACT, MKH-DMG or MKH-SUC for various intervals. After the drug exposure, media were removed, and cells were washed three times with PBS. Cells were collected in 1 mL of PBS and sonicated. The cell homogenates were combined with an equal volume of methanol and three times volume of n-hexane, vortexed for 2 min and centrifuged at 1750× g for 10 min. The organic layer was evaporated under N2 gas. The residue was reconstituted with 100 μL of methanol, sonicated for 10 s and subjected to LC-UV or LC-MS/MS analysis, as described below. The protein concentration of the cell homogenate was determined using a BCA protein assay kit.
(§3) The LC system was the same as that described in the 4.8.1 LC-MS/MS section, and the UV detector was a Prominence SPD-20A (Shimadzu Corp., Kyoto, Japan). Separations were performed on the same column mentioned in the 4.8.1 LC-MS/MS section and monitored at a wavelength of 240 nm. The mobile flow was a binary gradient: (A) 0.1% acetic acid in water and (B) 0.1% acetic acid in methanol. The total flow rate was 0.3 mL/min; 0 min at 80% B, 1 min at 80% B, 4.0 min at 100% B, 7.0 min at 100% B and 8.0 min at 80% B. The Column temperature was 40 °C. The retention times were as follows: MKH-DMG, 9.2 min; MKH-ACT, 8.2 min; and MKH-SUC, 6.6 min.
(§4) For the determination of Km and Vmax for the uptake and enzymatic activation of MKH-esters, concentration-dependency data were fit to the Michaelis--Menten equation:V = Vmax·[S]/(Km + [S])(1) where V represents the velocity of action between the substrate and transportation/enzymatic reaction, [S] refers to the concentration of the substrate and Km is defined as the concentration of substrate at the half-maximal rate of action (Vmax). Data were analyzed by GraphPad Prism (GraphPad Software).

[2] = as above; format: in vitro ADME; settings: human, Michaelis-Menten fit, 95% confidence interval in square brackets
Procedure: as §1, §2, §3, §4

SK-Hep-1 cells = assay: as above; format: in vitro ADME; settings: Michaelis-Menten fit, 95% confidence interval in square brackets
Procedure: as §1, §2, §3, §4

esterase = assay: Regeneration (hydrolysis) of MKH-ester derivatives to MKH in S9 fractions; format: in vitro ADME; settings: human, pH 7.4, 37 °C, Michaelis-Menten fit, 95% confidence interval in square brackets
Procedure: To assess the regeneration to the parental form, MKH, from the MKH-ester derivatives by an esterase of HCC, MKH-ACT, MKH-DMG and MKH-SUC were incubated at 37 °C in S9 fractions obtained from PLC/PRF/5 or SK-Hep-1 cells. The velocities of MK-4 generated in the S9 fractions were plotted as the amount of MKH, because MKH is rapidly oxidized to MK-4 during drug extraction and measurement. The regeneration versus […] profile was fitted by the Michaelis--Menten model (shown in Figure 4) and the kinetic parameters were calculated (Table 2). The regeneration velocities of MKH-ACT in both PLC/PRF/5 and SK-Hep-1 cells reached a plateau at about 3 μM MKH-ACT. MKH-DMG reached a plateau in PLC/PRF/5 and SK-Hep-1 cells at 25 μM and about 6 μM MKH-DMG, respectively. MKH-SUC reached a plateau in PLC/PRF/5 and SK-Hep-1 cells at about 0.6 μM and about 1.5 μM MKH-SUC, respectively. The level scale of MKH regeneration from MKH-SUC was about 100-fold higher than those of MKH-ACT and MKH-DMG.
The hydrolysis of the esters was performed at 37 °C in S9 fractions of PLC/PRF/5 and SK-Hep-1 cells after ultrasonic homogenization and centrifugation (10,000× g, 1 h) in isotonic phosphate buffer (pH 7.4). Stock solutions of each ester were made in the same manner as the cell viability assay, and the solutions were diluted with 0.1% w/v albumin in PBS. The enzymatic reactions were initiated by adding 5 μL of the diluted of each ester into amber test tubes containing 95 μL of preheated S9 fractions. A BCA protein assay (PIERCE/Thermo Fisher Scientific Inc., Waltham, MA, USA) was used to determine protein concentrations, and the final S9 concentration was adjusted to 1.0 mg of protein/mL in PBS. The solutions were incubated at 37 °C, and at appropriate times, the aliquots from the reaction were combined with an equal volume of methanol and three times volume of n-hexane. The samples were vortexed for 2 min and centrifuged at 1750× g for 10 min. The upper layer (n-hexane) was collected and evaporated under nitrogen. The residue was reconstituted with 100 μL of methanol, sonicated for 10 s and subjected to LC-MS/MS analysis as described below.
The LC-MS/MS analysis was performed with the same instrument under the same conditions as in an earlier report, except for the following MS/MS-multiple reaction monitoring (MRM) setting and retention times: MRM: m/z 532→171, [M + H]^+ MKH-ACT adduct; m/z 664→187, [M + NH4]^+ MKH-SUC adduct; retention times: MKH-ACT, 1.7 min; and MKH-SUC, 1.1 min.
as §4

[3] = PLC/PRF/5 cells (HCC cell line), PLC/PRF/5 cells
[4] = S9 fraction of PLC/PRF/5 cells, S9 of PLC/PRF/5 cells
[5] = S9 fraction of SK-Hep-1 cells, S9 of SK-Hep-1 cells

Row | SMILES | Effect on cyclin D1 and CDK4 expression compared with controls [1] | Vmax (uptake of MKH-ester) (PLC/PRF/5 cells) | Km [2, 3] | Km ([2]; SK-Hep-1 cells (HCC cell line)) | Vmax (uptake of MKH-ester) (SK-Hep-1 cells) | Km (esterase; [4]) | Km (esterase; [5]) | Vmax/Km of uptake, higher than those for MKH-ACT and MKH-DMG (PLC/PRF/5 cells; in both cell lines (PLC/PRF/5 and SK-Hep-1))
1 | CC(=O)Oc1c(C)c(C/C=C(\C)CC/C=C(\C)CC/C=C(\C)CCC=C(C)C)c(OC(C)=O)c2ccccc12 [MKH-ACT, Menahydroquinone-4 1,4-bis acetate] | did not affect | 2.76 [1.70 to 3.81] nmol·mg of Protein^−1·h^−1 | 31.9 µM | 227 µM | 20.3 [−9.47 to 50.0] nmol·mg of Protein^−1·h^−1 | 1.42 µM | 1.32 µM | –
2 | CC(C)=CCC/C(C)=C/CC/C(C)=C/CC/C(C)=C/Cc1c(C)c(OC(=O)CN(C)C)c2ccccc2c1OC(=O)CN(C)C [MKH-DMG, Menahydroquinone-4 1,4-bis-N,N-dimethylglycinate hydrochloride] | clearly suppressed | 28.9 [−4.27 to 62.1] nmol·mg of Protein^−1·h^−1 | 447 µM | 556 µM | 62.6 [4.69 to 121] nmol·mg of Protein^−1·h^−1 | 13.6 µM | 3.24 µM | –
3 | CC(C)=CCC/C(C)=C/CC/C(C)=C/CC/C(C)=C/Cc1c(C)c(OC(=O)CCC(=O)O)c2ccccc2c1OC(=O)CCC(=O)O [MKH-SUC, Menahydroquinone-4 1,4-bis hemisuccinate] | clearly suppressed | 345 [84.0 to 606] nmol·mg of Protein^−1·h^−1 | 712 µM | 381 µM | 261 [74.7 to 448] nmol·mg of Protein^−1·h^−1 | 0.399 µM | 0.74 µM | 5- to 10 fold
